# Counter-ions that a name gives are not always drawn.
# Molecular target: PKBα (Homo sapiens, UniProt P31749)
# Test: PKB kinase assay (P33-labeled ATP, synthetic peptide substrate, filter plate)
# Assay type: biochemical
# Settings: PKBα enzyme (full length or kinase domain with pleckstrin domain deleted)
# From the text: The kinase assay for evaluating PKB activity comprises active PKB enzymes, a PKB specific substrate, and P^33-labeled ATP. Two forms of PKBα enzymes were used, the full length PKBα and a kinase domain of PKBα with pleckstrin domain (amino acids 1-117) deleted. Both PKB enzymes were obtained from Upstate cell signaling solutions (Cat.# 14-276 and 14-341). The PKB substrate used is a synthetic peptide (ARKRERTYSFGHHA (SEQ ID NO: 1)) as described in Obata et al., J. Biol. Chem. 275 (46), 36108-36115 (2000). The phosphorylated substrate was captured by a phosphocellulose membrane filter plate (MILLIPORE) and measured by a Wallac Microbeta liquid scintillation counter (Perkin Elmer). Table 1 provides the IC50 values obtained for each of the examples with respect to PKBα.
# Sequence of PKBα (P31749 118-480 limits assumed): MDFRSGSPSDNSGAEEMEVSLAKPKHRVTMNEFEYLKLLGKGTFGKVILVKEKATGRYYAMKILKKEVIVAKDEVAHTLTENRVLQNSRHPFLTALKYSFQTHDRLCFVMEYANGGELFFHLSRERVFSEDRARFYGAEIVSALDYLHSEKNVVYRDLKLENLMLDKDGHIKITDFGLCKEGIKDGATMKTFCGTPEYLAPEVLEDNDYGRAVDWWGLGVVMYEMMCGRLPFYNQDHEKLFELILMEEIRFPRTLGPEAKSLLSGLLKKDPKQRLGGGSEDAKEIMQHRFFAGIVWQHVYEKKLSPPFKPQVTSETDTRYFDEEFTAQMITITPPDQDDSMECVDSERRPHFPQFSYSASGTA
row,Structure (SMILES),IC50 [µM]
1,"N[C@H](CNc1nc(-c2ccc3c(c2)CC(=O)N3)ns1)Cc1ccc(C(F)(F)F)cc1 [Example 44, 5-(5-((S)-2-Amino-3-(4-(trifluoromethyl)phenyl)propylamino)-1,2,4-thiadiazol-3-yl)indolin-2-one]",1 to 10
2,"N[C@H](CNc1nc(-c2ccc3[nH]ncc3c2)ns1)Cc1ccc(C(F)(F)F)cc1 [Example 45, N-((S)-2-Amino-3-(4-(trifluoromethyl)phenyl)propyl)-3-(1H-indazol-5-yl)-1,2,4-thiadiazol-5-amine]",1 to 10
3,"N[C@@H](Cc1ccc(C(F)(F)F)cc1)c1nc(-c2ccc3c(c2)CC(=O)N3)no1 [Example 49, 5-(5-((S)-1-Amino-2-(4-(trifluoromethyl)phenyl)ethyl)-1,2,4-oxadiazol-3-yl)indolin-2-one]",1 to 10
4,"Cn1c(=O)[nH]c2ccc(-c3cnn(CC[C@@H](N)Cc4ccc(Cl)cc4)c3)cc21 [Example 54, 6-(1-((S)-3-Amino-4-(4-chlorophenyl)butyl)-1H-pyrazol-4-yl)-1-methyl-1H-benzo[d]imidazol-2(3H)-one]",0.05 to 1
5,"Cc1ccc(C[C@H](N)CCn2cc(-c3ccc4cnccc4c3)cn2)cc1 [Example 58, (2S)-4-(4-(Isoquinolin-6-yl)-1H-pyrazol-1-yl)-1-p-tolylbutan-2-amine]",0.05 to 1
6,"N[C@H](CCn1cc(-c2ccc3cnccc3c2)cn1)Cc1cccc(Cl)c1 [Example 59, (2S)-1-(3-Chlorophenyl)-4-(4-(isoquinolin-6-yl)-1H-pyrazol-1-yl)butan-2-amine]",0.05 to 1
7,"N[C@H](CCn1cc(-c2ccc3cnccc3c2)cn1)Cc1ccc(Cl)c(Cl)c1 [Example 60, (2S)-1-(3,4-Dichlorophenyl)-4-(4-(isoquinolin-6-yl)-1H-pyrazol-1-yl)butan-2-amine]",0.05 to 1
8,"N[C@H](CCn1cc(-c2ccc3cnccc3c2)cn1)Cc1ccc(F)c(F)c1 [Example 61, (2S)-1-(3,4-Difluorophenyl)-4-(4-(isoquinolin-6-yl)-1H-pyrazol-1-yl)butan-2-amine]",0.05 to 1
9,"N[C@H](CCn1cc(-c2ccc3cnccc3c2)cn1)Cc1ccc(F)cc1 [Example 62, (2S)-1-(4-Fluorophenyl)-4-(4-(isoquinolin-6-yl)-1H-pyrazol-1-yl)butan-2-amine]",0.05 to 1
10,"N[C@H](CCn1cc(-c2ccc3cnccc3c2)cn1)Cc1ccc(Cl)cc1Cl [Example 63, (2S)-1-(2,4-Dichlorophenyl)-4-(4-(isoquinolin-6-yl)-1H-pyrazol-1-yl)butan-2-amine]",0.05 to 1
11,"N[C@H](CCn1cc(-c2ccc3cnccc3c2)cn1)Cc1ccccc1 [Example 64, (2S)-4-(4-(Isoquinolin-6-yl)-1H-pyrazol-1-yl)-1-phenylbutan-2-amine]",0.05 to 1
12,"N[C@@H](Cc1ccc(C(F)(F)F)cc1)Cn1cc(-c2ccc3cnccc3c2)cn1 [Example 65, (2S)-1-(4-(Isoquinolin-6-yl)-1H-pyrazol-1-yl)-3-(4-(trifluoromethyl)phenyl)-propan-2-amine]",0.05 to 1
13,"N[C@H](CCc1nnc(-c2ccc3cnccc3c2)o1)Cc1ccc(C(F)(F)F)cc1 [Example 66, (2R)-4-(5-(Isoquinolin-6-yl)-1,3,4-oxadiazol-2-yl)-1-(4-(trifluoromethyl)phenyl)butan-2-amine]",0.05 to 1
14,"N[C@H](CCc1cn(-c2ccc3[nH]ncc3c2)nn1)Cc1ccc(C(F)(F)F)nc1 [Example 67, (2R)-4-(1-(1H-Indazol-5-yl)-1H-1,2,3-triazol-4-yl)-1-(6-(trifluoromethyl)pyridin-3-yl)butan-2-amine bistrifluoroacetate]",0.05 to 1

# Other lines, results leading:
row,IC50 [µM],Structure (SMILES)
1,0.05 to 1,"N[C@H](CNc1cnc(-c2ccc3cnccc3c2)s1)Cc1ccc(C(F)(F)F)cc1 [Example 41, N-((S)-2-Amino-3-(4-(trifluoromethyl)phenyl)propyl)-2-(isoquinolin-6-yl)thiazol-5-amine trifluoroacetate]"
2,0.05 to 1,"N[C@H](CNc1cnn(-c2ccc3cnccc3c2)c1)Cc1ccc(C(F)(F)F)cc1 [Example 42, N-((S)-2-Amino-3-(4-(trifluoromethyl)phenyl)propyl)-1-(isoquinolin-6-yl)-1H-pyrazol-4-amine]"
3,0.05 to 1,"N[C@H](CNc1nc(-c2ccc3cnccc3c2)ns1)Cc1ccc(C(F)(F)F)cc1 [Example 43, N-((S)-2-Amino-3-(4-(trifluoromethyl)phenyl)propyl)-3-(isoquinolin-6-yl)-1,2,4-thiadiazol-5-amine]"
4,0.05 to 1,"N[C@H](CNc1cnn(-c2ccc3cnccc3c2)c1)Cc1ccc(Cl)cc1 [Example 46, N-((S)-2-Amino-3-(4-chlorophenyl)propyl)-1-(isoquinolin-6-yl)-1H-pyrazol-4-amine]"
5,0.05 to 1,"N[C@H](CNc1nsc(-c2ccc3c(c2)CC(=O)N3)n1)Cc1ccc(C(F)(F)F)cc1 [Example 47, 5-(3-((S)-2-Amino-3-(4-(trifluoromethyl)phenyl)propylamino)-1,2,4-thiadiazol-5-yl)indolin-2-one]"
6,0.05 to 1,"N[C@H](CCc1nc(-c2ccc3c(c2)CC(=O)N3)no1)Cc1ccc(C(F)(F)F)cc1 [Example 48, 5-(5-((R)-3-Amino-4-(4-(trifluoromethyl)phenyl)butyl)-1,2,4-oxadiazol-3-yl)indolin-2-one]"
7,< 0.05,"N[C@H](CCn1cc(-c2ccc3[nH]c(=O)oc3c2)cn1)Cc1ccc(Cl)cc1 [Example 50, 6-(1-((S)-3-Amino-4-(4-chlorophenyl)butyl)-1H-pyrazol-4-yl)benzo[d]oxazol-2(3H)-one]"
8,< 0.05,"N[C@H](CCn1cc(-c2ccc3c(c2)CC(=O)N3)cn1)Cc1ccc(Cl)cc1 [Example 51, 5-(1-((S)-3-Amino-4-(4-chlorophenyl)butyl)-1H-pyrazol-4-yl)indolin-2-one]"
9,< 0.05,"N[C@H](CCn1cc(-c2ccc3[nH]ncc3c2)cn1)Cc1ccc(Cl)cc1 [Example 52, (2S)-4-(4-(1H-Indazol-5-yl)-1H-pyrazol-1-yl)-1-(4-chlorophenyl)butan-2-amine]"
10,< 0.05,"Cc1n[nH]c2ccc(-c3cnn(CC[C@@H](N)Cc4ccc(Cl)cc4)c3)cc12 [Example 53, (2S)-1-(4-Chlorophenyl)-4-(4-(3-methyl-1H-indazol-5-yl)-1H-pyrazol-1-yl)butan-2-amine]"
11,< 0.05,"N[C@H](CCn1cc(-c2ccc3cnc(F)cc3c2)cn1)Cc1ccc(Cl)cc1 [Example 55, (2S)-1-(4-Chlorophenyl)-4-(4-(3-fluoroisoquinolin-6-yl)-1H-pyrazol-1-yl)butan-2-amine]"
12,< 0.05,"N[C@H](CCn1cc(-c2ccc3cnccc3c2)cn1)Cc1ccc(Cl)cc1 [Example 56, (2S)-1-(4-Chlorophenyl)-4-(4-(isoquinolin-6-yl)-1H-pyrazol-1-yl)butan-2-amine]"
13,< 0.05,"N[C@H](CCn1cc(-c2ccc3cnccc3c2)cn1)Cc1ccc(C(F)(F)F)cc1 [Example 57, (2S)-4-(4-(Isoquinolin-6-yl)-1H-pyrazol-1-yl)-1-(4-(trifluoromethyl)phenyl)butan-2-amine]"
